In patent publication US11510890B2, “Meroterpenoid compounds for use in the prevention and treatment of a neurological disorder” (SOCIETE DES PRODUITS NESTLE S.A., priority 2017, dated 2022):
Where two headings read alike, the source gives them in different places.

How the values were obtained:
[1] = test system: human iPSc derived into astrocyte (iCell astrocytes); experiment: Lactate release dose response in human iPSc derived astrocytes; type: cell-based
Protocol: Dose response curves were established for compounds identified in the screen to stimulate lactate secretion. The EC50 values for the stimulation of lactate secretion were determined using primary human IPS cell derived astrocytes.
(§1) Differentiated human iPSCs (iCell astrocytes, and iCell cardiomyocytes) were obtained from Cellular Dynamics International (CDI, Madison, Wis., USA). iCell astrocytes were cultured in DMEM supplemented with 10% fetal calf serum and N2 complement. iCell cardiomyocytes were maintained in a medium supplied by CDI. Cell cultures were kept in a humidified atmosphere (5% CO2) at 37° C.
Dose response of compounds on lactate release from human iPSc derived into astrocyte fitted with a log (agonist) vs. response variable slope to extract […] (EC50). Mean±SEM in duplicate.
(§2) The toxicity expressed in log IC50 (ATP content after 24 hours compound treatment on human iPSc derived into cardiomyocyte) was compared against the lactate release in log EC50 (lactate secretion after 2 hours compound treatment in human iPSc derived into astrocytes).

[2] = test system: Human astrocytoma cell line CCF-STTG1; experiment: Lactate release screening assay (fluorescent enzymatic assay); type: cell-based; conditions: for Primary screen %: CCF-STTG1, supernatants after 2 hours
Protocol: Human astrocytoma cell line CCF-STTG1 was cultured at 37° C. in a humidified atmosphere (5% CO2) in RPMI-1640 medium supplemented with 10% (v/v) heat-inactivated fetal calf serum, 50 μg/ml penicillin and 100 μg/ml streptomycin.
CCF-STTG1 were seeded in 384-well plates. Two days later, the cells were washed 3 times and incubated 30 min in Krebs-Ringer bicarbonate HEPES (KRBH) buffer containing (in mM): 140 NaCl, 3.6 KCl, 0.5 NaH2PO4, 0.5 MgSO4, 1.5 CaCl2, 10 HEPES, 5 NaHCO3 (pH7.4) supplemented with 2.5 mM glucose. Then, the cells were maintained in the buffer in the presence of tested compounds. Supernatants were collected after 2 hours and were assessed for lactate concentration. Lactate concentration in the supernatants were determined by fluorescent enzymatic assay. Samples were diluted in assay reagent containing (in mM or U/ml)): 100 sodium phosphate (pH7.5), 0.1 EDTA, 0.05 Amplex UltraRed, 0.1 Lactate oxidase, 1.5 Horseradish Peroxidase.
Fluorescence emission was measured at 600 nm after an excitation at 500 nm using Bioteck Synergie Neo multimode reader after 30 min at room temperature protected from direct light.

CCF-STTG1 = experiment: Lactate release orthogonal assay (spectrophotometric enzymatic assay); type: cell-based, human; conditions: CCF-STTG1, supernatants after 2 hours, colorimetric kit
Protocol: CCF-STTG1 were seeded in 384-well plates. Two days later, the cells were washed 3 times and incubated 30 min in Krebs-Ringer bicarbonate HEPES (KRBH) buffer containing (in mM): 140 NaCl, 3.6 KCl, 0.5 NaH2PO4, 0.5 MgSO4, 1.5 CaCl2, 10 HEPES, 5 NaHCO3 (pH7.4) supplemented with 2.5 mM glucose. The cells were maintained in the buffer in the presence of tested compounds. Supernatants were collected after 2 hours and assessed for lactate concentration. Lactate concentration in the supernatant was determined by a spectrophotometric enzymatic assay (lactate colorimetric assay kit II no. K627; BioVision, Milpitas, Calif. USA). In this kit, lactate is oxidized by lactate dehydrogenase to generate a product which interacts with a probe to produce a color (λmax=450 nm).
Absorbance was measure after 30 min at 450 nm using Bioteck Synergie Neo multimode reader. Background absorbance obtained in the absence of kit was subtracted from each value.
The stimulation of lactate secretion after treatment with meroterpenoid compounds was confirmed in an orthogonal assay based on another enzyme to measure lactate. The results of the lactate release measurement during the drug discovery screen for each compound and the results of lactate release measure with the orthogonal assay were correlated.

[3] = test system: human iPSc derived into cardiomyocyte (iCell Cardiomyocytes); experiment: Toxicity - ATP content (CellTiter-Glo); type: cell-based
Protocol: as §1
iCell Cardiomyocytes were seeded in 384-well plates. Eight days later cells were treated for 24 hours with compounds. Cell viability was determined by the quantification of intracellular ATP after cell lysis. ATP was used as an indicator of metabolically active cells. ATP was measured using a luminescent cell viability assay (CellTiter-Glo®; […]). Luminescence was measured after 20 min in a Bioteck Synergie Neo multimode reader.
Toxicity of the meroterpenoid compounds were evaluated in human IPS cell derived cardiomyocytes by measuring total ATP in cell lysates.
Dose response of compounds on human iPSc derived into cardiomyocyte with evaluation of the ATP level using cell titer glow. Results were normalized between untreated cells (100%) and positive control (0%).
as §2

[4] = lactate secretion after 2 hours compound treatment, read-out: Astrocytes Lactate release EC50
[5] = log of EC50 in M, given negative, 2 hours compound treatment
[6] = ATP content after 24 hours compound treatment, read-out: Cardiomyocytes Toxicity IC50
[7] = log of IC50 in M, given negative, ATP content after 24 hours

Compound	EC50 [1, 4]	Astrocytes Lactate release logEC50 [1, 5]	Primary screen % [2]	Reconfirmation % [2]	Orthogonal assay % (CCF-STTG1)	IC50 [3, 6]	Cardiomyocytes Toxicity log IC50 [3, 7]	EC50 ([1]; Homo sapiens, iPSC, lactate secretion after 2 hours compound treatment, read-out: Astrocytes Lactate release EC50)	EC50 ([1]; Homo sapiens, iPSC, log of EC50 in M, given negative, 2 hours compound treatment, read-out: Astrocytes Lactate release logEC50 (converted))	IC50 ([3]; Homo sapiens, iPSC, ATP content after 24 hours compound treatment, read-out: Cardiomyocytes Toxicity IC50)	IC50 ([3]; Homo sapiens, iPSC, log of IC50 in M, given negative, ATP content after 24 hours, read-out: Cardiomyocytes Toxicity log IC50 (converted))
COc1cc(CCc2ccccc2)c(C(=O)O)c(O)c1CC=C(C)C [80489-90-3, Amorfrutin]	3.2 µM	−5.5	85%	122%	80%	47 µM	−4.3	–	–	–	–
CC(/C=C/[C@@]1(C)[C@H](C)CCC(=O)[C@@H]1C)=C\Cc1c(O)cc(C)c(C=O)c1O [165187-16-6, Cylindrol B]	6.7 µM	−5.2	100%	61%	67%	31 µM	−4.5	–	–	–	–
Lasalocid [25999-31-9]	4.4 µM	−5.4	88%	73%	53%	11 µM	−4.9	–	–	–	–
CC(/C=C/C1(C)C(C)C=CC(=O)C1C)=C\Cc1c(O)c(Cl)c(C)c(C=O)c1O (stereo not drawn) [22581-11-9]	0.014 µM	−7.9	68%	50%	61%	3.2 µM	−5.5	–	–	–	–
C/C(=C\Cc1c(O)c(Cl)c(C)c(C=O)c1O)CC[C@@]1(C)[C@H](C)CCC(=O)[C@@H]1C [22562-67-0, Ilicicolin C]	0.15 µM	−6.8	70%	74%	84%	71 µM	−4.2	–	–	–	–
CC(C)=CCC/C(C)=C/Cc1c(O)cc(CCc2ccccc2)c(C(=O)O)c1O [73436-04-1, 4-O-Demethylamorfrutin B]	10 µM	−5.0	82%	77%	68%	–	–	–	–	–	–
CC(/C=C/[C@@]1(C)[C@H](C)CCC(=O)[C@@H]1C)=C\Cc1c(O)c(Cl)c(C)c(C=O)c1O [26166-39-2, Ascochlorin]	–	–	–	–	–	–	–	0.011 µM	0.0126 µM	1.2 µM	1.26 µM
Ilicicolin F [22738-98-3]	0.027 µM	−7.6	96%	142%	119%	7 µM	−5.2	–	–	–	–
CC(=O)OC(C[C@@]1(C)[C@H](C)CCC(=O)[C@@H]1C)/C(C)=C/Cc1c(O)c(Cl)c(C)c(C=O)c1O (stereo partly drawn) [38965-84-3, Chloronectrin]	–	–	104%	97%	68%	30 µM	−4.5	–	–	–	–
C/C(=C\Cc1c(O)cc(C)c(C=O)c1O)CC[C@@]1(C)[C@H](C)CCC(=O)[C@@H]1C [22562-68-1, Antibiotic LL-Z 1272ε]	2.6 µM	−5.6	72%	83%	68%	81 µM	−4.1	–	–	–	–
